Structures are written as SMILES.

This is an account of results in article PMC9091416 (RSC Advances, 2018).

Holding throughout (assay): cells
Test [1] relates to NCM460 cells. It counts as cell-based. Conditions: Homo sapiens, NCM460, read-out: IC50 (μM) ± SD (μM), NCM460.
For test [2], the system named is HCT-116 cells. It counts as cell-based, human.
The subject of test [3] is DLD1 cells. It counts as cell-based. Conditions: Homo sapiens, DLD-1, read-out: IC50 (μM) ± SD (μM), DLD1.
The subject of test [4] is RKO cells. It counts as cell-based. The following applies: Homo sapiens, read-out: IC50 (μM) ± SD (μM), RKO.

Usually IC50 stands for the midpoint of a concentration-inhibition curve. Consider `CC(=O)OC[C@H]1OC(OC(C)=O)[C@H](n2cc(C(=O)NC3([As](O)O)C=CC=CC3)nn2)[C@@H](OC(C)=O)[C@@H]1OC(C)=O` (stereo partly drawn) [Compound 8, 1-(1-(1,3,4,6-tetra-O-acetyl-2-deoxy-D-glucopyranos-2-yl) -1H-1,2,3-triazole-4-carboxamido)phenyl arsonous acid], for which the IC50 came out at 16.1 ± 2.21 µM in test [1]; 17.7 ± 1.44 µM in test [2] (Homo sapiens, HCT-116, read-out: IC50 (μM) ± SD (μM), HCT-116); 15 ± 2.72 µM in test [3]; 4.57 ± 0.17 µM in test [4]. In test [2], the Selectivity index is 0.91.
